Measurements as given in patent publication US20200360260A1, “TOPICAL COMPOSITION COMPRISING ANTIMICROBIAL LIPID” (Conopco, Inc., d/b/a UNILEVER, priority 2017, published 2020).

Assays:
Format in all cases: cell-based
Details in all cases: for combined effect with AMLs: in combination with AMLs
[1] = tested on: Propionibacterium acnes (ATCC 6919); test: ΣFIC assay against P. acnes
Description: (§1) Method: ΣFIC Assay Against M. Furfur, S. Aureus and P Acnes
Propionibacterium acnes (ATCC 6919) was inoculated from freezer into liquid Reinforced Clostridial Medium (RCM, HepoBio: HB0316) for 3 days (anaerobic conditions) growth at 37° C. The suspension containing the microbe was then diluted 10-times with RCM and incubated again under 37° C. for another 3 days. The inoculum was further diluted by RCM to get around 10^4 cells/ml.
(§2) Honokiol (Ex. Sigma) 50 mg/ml in DMSO (50,000 ppm); Magnolol (Ex. Sigma) 50 mg/ml in DMSO (50,000 ppm); Sapienic acid (Ex. Parchem, CAS# 17004-51-2) 100 mg/ml in 100% ethanol (100,000 ppm); D-Sphingosine (Ex. Sigma S7049) 5 mg/ml in 50% ethanol (5,000 ppm); D-erythro-Dihydrosphingosine (Ex. Sigma D3314) 5 mg/ml in 50% ethanol (5,000 ppm); Phytosphingosine (Ex. Evonik) 5 mg/m stock in 50% ethanol (5,000 ppm); Palmitoleic acid (Ex. Sigma 76169) 100 mg/ml in 100% ethanol (100,000 ppm).
(§3) The ΣFIC test was conducted based on the principle previously described in Hall M J, Middleton R F, & Westmacott D (1983), The fractional inhibitory concentration (FIC) index as a measure of synergy. Journal of Antimicrobial Chemotherapy 11(5):427-433. The procedure is as follows:
(§4) Twenty (20) μl of compound A (honokiol or magnolol as applicable to the test) and 20 μl of compound B (a selection of different AMLs as applicable to the test) were mixed in corresponding wells of a 96-well plate. An amount of 160 μl of microbial suspension was dispensed in each well and the broth medium as taken as a blank control for comparison of results. The total reaction volume in each well was 200 μl.
(§5) Thereafter the 96-well plates were incubated in an incubator. In accordance with the test protocols that were followed, M. furfur was incubated aerobically at 32° C. for 1 day, S. aureus was incubated aerobically at 37° C. for 1 day and P. acnes was incubated anaerobically at 37° C. for 4 days. Thereafter 20 μl alamar blue (0.1%) was dispensed in each well and the procedure of incubation (as abovementioned) was repeated. Finally, the change in colour of the indicator was monitored to check for visible signs of microbial growth or inhibition of the growth. If the colour changed to red it indicated growth (of microbes) and blue indicated no growth or inhibition of growth.
(§6) After all the observations were recorded and tabulated, the Fractional Inhibition Concentration (FIC) was calculated. The combination effect of inhibitory antimicrobials is widely explored using the concept of the Fractional Concentration (FC) and Fractional Inhibitory Concentration (FIC). This parameter is defined as follows:
(§7) ΣFIC=FIC (component 1)+FIC (component 2)
(§8) The final concentration of each ingredient in ppm (parts per million) after (10-fold dilution) was as follows. Each of these concentrations was tried out to determine the FIC value for (either of) honokiol or magnolol in combination with one of the AMLs.

[2] = tested on: S. aureus (ATCC 12600); test: ΣFIC assay against S. aureus
Description: as §1
(§9) M. furfur (CBS1878) was inoculated into Pityrosporum Broth (PB, solution A) and incubated in a shaking incubator at 32° C. for 2 days. The suspension containing the microbe was then diluted 10-times by PB and incubated again at 32° C. for another 2 days. The inoculum was further diluted by PB to get around 10^4 cells /ml. S. aureus (ATCC 12600) was inoculated into Tryptone Soya Broth (TSB, Oxoid: CM0129) and incubated in a shaking incubator at 37° C. for 1 day. The suspension containing the microbe was then diluted 10-times with TSB and incubated again at 37° C. for another 1 day. The inoculum was further diluted by TSB to get around 10^5 cells/ml.
as §2, §3, §4, §5, §6, §7, §8

[3] = tested on: M. furfur (CBS1878); test: ΣFIC assay against M. furfur
Description: as §1, §9, §2, §3, §4, §5, §6, §7, §8

Row | Structure (SMILES) | The range of concentration of the ingredient (ppm) where the ΣFIC was less than 0.9: AML ([1]; in combination with honokiol) [ppm] | The range of concentration of the ingredient (ppm) where the ΣFIC was less than 0.9: AML ([1]; in combination with magnolol) [ppm] | The range of ratio of honokiol/AML (w/w) where ΣFIC was less than 0.9 [1] [w/w] | The range of ratio of magnolol/AML (w/w) where ΣFIC was less than 0.9 [1] [w/w] | The range of concentration of the ingredient (ppm) where the ΣFIC was less than 0.9: AML ([2]; in combination with honokiol) [ppm] | The range of concentration of the ingredient (ppm) where the ΣFIC was less than 0.9: AML ([2]; in combination with magnolol) [ppm] | The range of ratio of honokiol/AML (w/w) where ΣFIC was less than 0.9 [2] [w/w] | The range of ratio of magnolol/AML (w/w) where ΣFIC was less than 0.9 [2] [w/w] | The range of concentration of the ingredient (ppm) where the ΣFIC was less than 0.9: AML ([3]; in combination with honokiol) [ppm] | The range of concentration of the ingredient (ppm) where the ΣFIC was less than 0.9: AML ([3]; in combination with magnolol) [ppm] | The range of ratio of honokiol/AML (w/w) where ΣFIC was less than 0.9 [3] [w/w] | The range of ratio of magnolol/AML (w/w) where ΣFIC was less than 0.9 [3] [w/w] | combined effect with AMLs [1] | combined effect with AMLs [2] | combined effect with AMLs [3]
1 | CCCCCCCCCCCCCCC[C@@H](O)[C@@H](N)CO [dihydrosphingosine, D-erythro-Dihydrosphingosine] | 0.63 to 2.50 | 0.63 to 2.50 | 0.2 to 6.5 | 0.7 to 6.5 | 0.63 to 2.50 | 0.63 to 1.25 | 0.8 to 12.5 | 0.4 to 12.5 | 31.25 to 125 | 15.63 to 125 | 5 to 40 | 5 to 80 |  |  | 
2 | C=CCc1ccc(O)c(-c2ccc(O)c(CC=C)c2)c1 [honokiol, Honokiol] |  |  |  |  |  |  |  |  |  |  |  |  | synergistic effect | synergistic effect | synergistic effect
3 | C=CCc1ccc(O)c(-c2cc(CC=C)ccc2O)c1 [magnolol, Magnolol] |  |  |  |  |  |  |  |  |  |  |  |  | synergistic effect | synergistic effect | synergistic effect
4 | CCCCCC/C=C\CCCCCCCC(=O)O [palmitoleic acid, Palmitoleic acid] | 1.95 to 7.81 | 1.95 to 7.81 | 0.06 to 1 | 0.1 to 4 | 3.91 to 62.5 | 3.91 to 52.5 | 0.008 to 2 | 0.008 to 2 | 625 to 5000 | 625 to 5000 | 0.06 to 2 | 0.03 to 2 |  |  | 
5 | CCCCCCCCCCCCCC[C@@H](O)[C@@H](O)[C@@H](N)CO [phytosphingosine, Phytosphingosine] | 1.25 to 5.00 | 0.63 to 5.00 | 0.2 to 3.2 | 0.4 to 12.5 | 0.63 to 5.00 | 0.63 to 2.50 | 0.4 to 12.5 | 0.2 to 12.5 | 15.63 to 62.5 | 3.91 to 62.5 | 10 to 80 | 10 to 320 |  |  | 
6 | CCCCCCCCC/C=C\CCCCC(=O)O [sapienic acid, Sapienic acid] | 1.95 to 3.91 | 1.95 to 3.91 | 0.25 to 1 | 0.25 to 1 | 3.91 to 62.5 | 1.95 to 31.25 | 0.008 to 2 | 0.01 to 4 | 625 to 2500 | 625 to 5000 | 0.25 to 1 | 0.06 to 2 |  |  | 
7 | CCCCCCCCCCCCC/C=C/[C@@H](O)[C@@H](N)CO [sphingosine, D-Sphingosine] | 0.31 to 1.25 | 0.31 to 1.25 | 0.7 to 13 | 1.5 to 13 | 0.31 to 1.25 | 0.31 to 0.63 | 0.8 to 25 | 1.5 to 25 | 31.25 to 250 | 31.25 to 125 | 1.25 to 40 | 5 to 40 |  |  | 
